From patent publication US20160206623A9, “Composition For Prevention of Vasoactivity in the Treatment of Blood Loss and Anemia” (priority 2012, published 2016) come the findings set out here.

The experiment deals with segments of the rat thoracic aorta (RTA). Put plainly: Vasoactivity (isometric tension) of rat thoracic aorta rings in tissue bath.

Take `COc1ccc([C@@H]2Sc3ccccc3N(CCN(C)C)C(=O)[C@@H]2OC(C)=O)cc1` [DLT, Diltiazam]: the “vasoconstriction with HES + PHE” value (HES 4.4 uM + PHE, DLT 10^-7 to 10^-5 M (FIG. 8, a2-d2)) was “the vasoconstriction is reduced”. Besides, the “effect on PHE induced vasoconstriction” value (PHE without hemoglobin, different concentrations of additive (DLT 10^-7 to 10^-5 M)) is “reduces the vasoconstrictive effect of PHE”.

As for `CNC[C@H](O)c1cccc(O)c1` [PHE, Phenylephrine], where the note is “PHE added after SFH, preliminary experiments”, the “tension of the RTA” value was “increase the tension of the RTA significantly”.

Take `COc1cc2nc(N3CCN(C(=O)C4CCCO4)CC3)nc(N)c2cc1OC` (stereo not shown) [TER, Terazosin]: the “vasoconstrictive effect of SFH” value (terazosin suboptimal 10^-8 M, SFH+PHE (FIG. 9)) is listed as “reduces the vasoconstrictive effect of SFH”.
